From the supplement of paper PMC10307832

Assays:
Test in all cases: relative viability (nuclei count vs DMSO), 5 days (fraction); higher = more cells survive
RO-3306 + Lapatinib = compound: C1=CC2=C(C=CC(=C2)C=C3C(=O)NC(=NCC4=CC=CS4)S3)N=C1 [RO-3306] + CS(=O)(=O)CCNCc1ccc(-c2ccc3ncnc(Nc4ccc(OCc5cccc(F)c5)c(Cl)c4)c3c2)o1 [Lapatinib] (partner 2 µM)
Summary of the method: (§1)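 Relative viability divides the nuclei count in treated wells by that in vehicle wells. Lung cancer cell lines were seeded in 1536-well plates, dosed by pin tool the next day, and fixed and stained after 5 days in one step with final 0.05% Triton X-100, 1% formaldehyde and 1 ug/ml Hoechst. Dosing was a single drug or a fixed anchor-drug dose plus five library-drug doses (not always all listed) in √10 steps, and values are medians of duplicate plates imaged at 4×.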

RO-3306 + Phenformin = compound: C1=CC2=C(C=CC(=C2)C=C3C(=O)NC(=NCC4=CC=CS4)S3)N=C1 [RO-3306] + N=C(N)NC(=N)NCCc1ccccc1 [Phenformin] (partner 250 µM)
Summary of the method: as §1

[1] = compound: O=S(=O)(c1ccccc1)N(CC(F)(F)F)c1ccc(C(O)(C(F)(F)F)C(F)(F)F)cc1 + N=C(N)NC(=N)NCCc1ccccc1 [Phenformin] (partner 250 µM)
Summary of the method: as §1

RO-3306 + Vorinostat = compound: C1=CC2=C(C=CC(=C2)C=C3C(=O)NC(=NCC4=CC=CS4)S3)N=C1 [RO-3306] + O=C(CCCCCCC(=O)Nc1ccccc1)NO [Vorinostat] (partner 1 µM)
Summary of the method: as §1

## NCI-H2009
RO-3306 + Lapatinib; first compound 0.01 µM
  relative viability: 0.805
RO-3306 + Lapatinib; first compound 0.03162 µM
  relative viability: 0.887
RO-3306 + Lapatinib; first compound 0.1 µM
  relative viability: 0.867
RO-3306 + Lapatinib; first compound 0.3162 µM
  relative viability: 1.07
RO-3306 + Lapatinib; first compound 1 µM
  relative viability: 0.872
RO-3306 + Phenformin; first compound 0.01 µM
  relative viability: 0.52
RO-3306 + Phenformin; first compound 0.03162 µM
  relative viability: 0.455
RO-3306 + Phenformin; first compound 0.1 µM
  relative viability: 0.49
RO-3306 + Phenformin; first compound 0.3162 µM
  relative viability: 0.483
RO-3306 + Phenformin; first compound 1 µM
  relative viability: 0.494
[1]; first compound 0.8 µM
  relative viability: 0.47
[1]; first compound 2.53 µM
  relative viability: 0.439
[1]; first compound 8 µM
  relative viability: 0.419
RO-3306 + Vorinostat; first compound 0.01 µM
  relative viability: 0.797
RO-3306 + Vorinostat; first compound 0.03162 µM
  relative viability: 0.739
RO-3306 + Vorinostat; first compound 0.1 µM
  relative viability: 0.677
RO-3306 + Vorinostat; first compound 0.3162 µM
  relative viability: 0.81
RO-3306 + Vorinostat; first compound 1 µM
  relative viability: 0.712
